Tests used:
[1] = target: T1, Recombinant full-length human IDO1 (Homo sapiens, UniProt P14902); assay: IDO1 enzymatic assay (NFK quantified by LCMS); assay type: biochemical; conditions: 2 nM enzyme, 5 μM L-tryptophan, pH6.5, 30 minutes pre-incubation at RT; mean values when measured multiple times; read-out: hIDO activity (IC50 in nM)
T1 construct: Recombinant full-length human IDO1 with a N-terminal hexahistidine tag; hexahistidine (His6) (N); made in house; host or cells: E. coli
Procedure, shortened: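 IC50 comes from four-parameter logistic fits of duplicate data, with NFK quantified by LCMS and normalized to L-Trp-(indole-d5). Compound (0.5 nM–10 μM) was preincubated 30 min at RT with 2 nM E. coli-expressed IDO1 before a 30 min reaction with 5 μM tryptophan in pH 6.5 buffer containing ascorbate and methylene blue.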

[2] = target: T2, Recombinant human TDO comprising amino acids 19-407 (Homo sapiens, UniProt P48775); assay: TDO2 enzymatic assay (NFK quantified by LCMS); assay type: biochemical; conditions: 15 nM enzyme, 200 μM L-tryptophan, pH7, 30 minutes pre-incubation at RT; mean values when measured multiple times; read-out: hTDO activity (IC50 in nM)
T2 construct: Recombinant human TDO comprising amino acids 19-407 with a N-terminal hexahistidine tag; hexahistidine (His6) (N); made in house; host or cells: E. coli
T2 sequence (P48775 19-406 limits assumed): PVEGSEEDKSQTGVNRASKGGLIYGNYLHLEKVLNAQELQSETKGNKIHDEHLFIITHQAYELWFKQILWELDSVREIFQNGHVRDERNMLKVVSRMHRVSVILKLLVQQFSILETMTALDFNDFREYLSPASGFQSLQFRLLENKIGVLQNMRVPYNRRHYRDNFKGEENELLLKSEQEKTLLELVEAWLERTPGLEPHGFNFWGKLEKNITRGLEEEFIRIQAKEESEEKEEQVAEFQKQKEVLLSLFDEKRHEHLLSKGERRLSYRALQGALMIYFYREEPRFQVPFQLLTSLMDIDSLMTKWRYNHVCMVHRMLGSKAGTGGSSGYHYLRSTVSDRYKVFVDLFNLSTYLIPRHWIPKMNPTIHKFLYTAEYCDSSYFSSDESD
Procedure, shortened: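 NFK formed over 30 min at RT from 200 μM L-tryptophan was measured by LCMS, normalized to d5-tryptophan, after compound (0.5 nM–10 μM, duplicates, 0.6% DMSO) was preincubated 30 min with 15 nM recombinant His-tagged TDO 19-407 in phosphate buffer pH 7. IC50 from four-parameter logistic fit; repeats averaged.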

T1 sequence (P14902 whole entry): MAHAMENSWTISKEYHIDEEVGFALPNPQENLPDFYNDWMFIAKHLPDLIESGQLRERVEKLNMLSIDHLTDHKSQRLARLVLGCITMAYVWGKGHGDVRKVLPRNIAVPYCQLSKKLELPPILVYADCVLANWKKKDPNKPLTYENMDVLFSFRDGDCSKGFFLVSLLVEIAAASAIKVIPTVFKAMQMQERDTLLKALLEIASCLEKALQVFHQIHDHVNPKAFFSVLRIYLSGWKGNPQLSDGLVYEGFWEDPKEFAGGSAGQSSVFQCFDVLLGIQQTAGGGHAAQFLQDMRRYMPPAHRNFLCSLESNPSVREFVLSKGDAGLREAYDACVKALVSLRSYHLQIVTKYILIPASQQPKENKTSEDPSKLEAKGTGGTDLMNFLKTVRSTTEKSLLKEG

Structure (SMILES)	IC50 [1]	IC50 [2]
COc1ccc(-n2nnc(C(O)c3c(C4CC4)sc4cncn34)c2C)c(C)c1 (racemic) [Example 326, rac-(2-Cyclopropyl-imidazo[5,1-b]thiazol-3-yl)-[1-(4-methoxy-2-methyl-phenyl)-5-methyl-1H-[1,2,3]triazol-4-yl]-methanol]	16.9 nM	9520 nM
COc1ccc(-n2cc(C(O)c3c(C4CC4)sc4cncn34)nn2)cc1F (racemic) [Example 327, rac-(2-Cyclopropyl-imidazo[5,1-b]thiazol-3-yl)-[1-(3-fluoro-4-methoxy-phenyl)-1H-[1,2,3]triazol-4-yl]-methanol]	4.29 nM	> 10200 nM
CC(F)(F)c1sc2cncn2c1C(O)c1cn(-c2ccc(O)c(Cl)c2)nn1 (racemic) [Example 329, rac-2-Chloro-4-(4-{[2-(1,1-difluoro-ethyl)-imidazo[5,1-b]thiazol-3-yl]-hydroxy-methyl}-[1,2,3]triazol-1-yl)-phenol]	2.49 nM	9930 nM
COCc1ccc(-n2cc(C(O)c3c(C4CC4)sc4cncn34)nn2)cc1 (racemic) [Example 330, rac-(2-Cyclopropyl-imidazo[5,1-b]thiazol-3-yl)-[1-(4-methoxymethyl-phenyl)-1H-[1,2,3]triazol-4-yl]-methanol]	31.6 nM	> 10200 nM
Oc1cc(F)c(-n2cc(C(O)c3c(C4CC4)sc4cncn34)nn2)cc1F (racemic) [Example 331, rac-4-{4-[(2-Cyclopropyl-imidazo[5,1-b]thiazol-3-yl)-hydroxy-methyl]-[1,2,3]triazol-1-yl}-2,5-difluoro-phenol]	4.55 nM	7180 nM
CCc1sc2cncn2c1C(O)c1cn(-c2cc(F)c(O)cc2F)nn1 (racemic) [Example 332, rac-4-{4-[(2-Ethyl-imidazo[5,1-b]thiazol-3-yl)-hydroxy-methyl]-[1,2,3]triazol-1-yl}-2,5-difluoro-phenol]	5.37 nM	2820 nM
COc1cc(F)c(-n2nnc(C(O)c3c(C4CC4)sc4cncn34)c2C)cc1Cl (racemic) [Example 333, rac-[1-(5-Chloro-2-fluoro-4-methoxy-phenyl)-5-methyl-1H-[1,2,3]triazol-4-yl]-(2-cyclopropyl-imidazo[5,1-b]thiazol-3-yl)-methanol]	1.46 nM	> 10200 nM
COc1ccc(-n2nnc(C(O)c3c(C4CC4)sc4cncn34)c2I)cc1 (racemic) [Example 334, rac-(2-Cyclopropyl-imidazo[5,1-b]thiazol-3-yl)-[5-iodo-1-(4-methoxy-phenyl)-1H-[1,2,3]triazol-4-yl]-methanol]	12.1 nM	7280 nM
COc1ccc(-n2nnc(C(O)c3c(C4CC4)sc4cncn34)c2F)cc1 (racemic) [Example 336, rac-(2-Cyclopropyl-imidazo[5,1-b]thiazol-3-yl)-[5-fluoro-1-(4-methoxy-phenyl)-1H-[1,2,3]triazol-4-yl]-methanol]	32.7 nM	> 10200 nM
COc1ccc(-n2cc(C(O)c3c([C@@H]4C[C@@H]4F)sc4cncn34)nn2)cc1 (relative stereo) [Example 93, [2-(cis-2-Fluoro-cyclopropyl)-imidazo[5,1-b]thiazol-3-yl]-[1-(4-methoxy-phenyl)-1H-[1,2,3]triazol-4-yl]-methanol]	25 nM	> 10200 nM
COc1ccc(-n2cc(C(O)c3c([C@@H]4C[C@H]4F)sc4cncn34)nn2)cc1 (relative stereo) [Example 94, [2-(trans-2-Fluoro-cyclopropyl)-imidazo[5,1-b]thiazol-3-yl]-[1-(4-methoxy-phenyl)-1H-[1,2,3]triazol-4-yl]-methanol]	12.8 nM	> 10200 nM
CC(C)(O)CCOc1ccc(-n2cc(C(O)c3c([C@@H]4C[C@H]4F)sc4cncn34)nn2)cc1Cl (relative stereo) [Example 308, 4-[2-Chloro-4-(4-{[2-(trans-2-fluoro-cyclopropyl)-imidazo[5,1-b]thiazol-3-yl]-hydroxy-methyl}-[1,2,3]triazol-1-yl)-phenoxy]-2-methyl-butan-2-ol]	12.7 nM	> 10200 nM

Reference: patent publication US20200405696A1, “INHIBITORS OF INDOLEAMINE 2,3-DIOXYGENASE AND/OR TRYPTOPHAN 2,3-DIOXYGENASE” (IDORSIA PHARMACEUTICALS LTD, priority 2018, published 2020)
